Measurements reported in paper PMC6278960 (Haematologica, 2018).

Biological target: protein disulfide isomerase (PDI) (Homo sapiens, UniProt P07237)
Experiment: turbidimetric insulin disulfide reduction assay with recombinant human PDI
Format: biochemical

Chain of protein disulfide isomerase (PDI) (P07237 18-508): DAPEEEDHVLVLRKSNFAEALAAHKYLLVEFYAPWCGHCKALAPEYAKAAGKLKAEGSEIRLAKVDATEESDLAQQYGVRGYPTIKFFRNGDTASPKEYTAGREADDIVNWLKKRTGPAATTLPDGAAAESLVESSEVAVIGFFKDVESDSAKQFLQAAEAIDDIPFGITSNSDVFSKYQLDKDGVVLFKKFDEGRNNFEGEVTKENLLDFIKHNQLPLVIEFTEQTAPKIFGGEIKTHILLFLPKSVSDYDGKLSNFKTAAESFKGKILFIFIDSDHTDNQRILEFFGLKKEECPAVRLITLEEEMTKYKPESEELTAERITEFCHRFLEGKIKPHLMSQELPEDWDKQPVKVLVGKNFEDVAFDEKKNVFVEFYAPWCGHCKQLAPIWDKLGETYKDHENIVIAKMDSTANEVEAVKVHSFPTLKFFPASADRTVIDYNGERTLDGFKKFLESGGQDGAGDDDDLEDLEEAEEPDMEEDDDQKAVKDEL

SK053
IC50: 9.98 µM
